# pIC50: −log10 of the molar value.
# What was measured:
# CRTH2 [1] = target: T1, CRTH2 (Homo sapiens, UniProt Q9Y5Y4); experiment: Radioligand binding Scintillation Proximity Assay ([3H]PGD2, hCRTH2-CHO cell membranes); set-up: host or cells: CHO cells; conditions: 1.5 nM [3H]PGD2, hCRTH2-CHO cell membranes, SPA
# T1 sequence (Q9Y5Y4 1-395): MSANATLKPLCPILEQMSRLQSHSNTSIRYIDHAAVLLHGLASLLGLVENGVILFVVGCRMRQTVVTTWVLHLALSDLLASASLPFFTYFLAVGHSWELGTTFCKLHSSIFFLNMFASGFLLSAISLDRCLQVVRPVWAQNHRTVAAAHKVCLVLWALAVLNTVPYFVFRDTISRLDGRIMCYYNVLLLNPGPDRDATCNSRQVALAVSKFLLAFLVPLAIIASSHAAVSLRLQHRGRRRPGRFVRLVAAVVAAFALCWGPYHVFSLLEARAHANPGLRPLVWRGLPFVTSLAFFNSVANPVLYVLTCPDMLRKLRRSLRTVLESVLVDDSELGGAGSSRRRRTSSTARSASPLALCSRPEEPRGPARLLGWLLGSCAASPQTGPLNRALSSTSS
# Method in brief: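 SPA competition binding at room temperature, 90 min with agitation: 1.5 nM [3H]PGD2, 10-50 μg/ml hCRTH2-CHO membrane protein, WGA SPA beads, HEPES pH 7.4 with 10 mM MnCl2, 1% DMSO. Non-specific binding defined with 10 μM PGD2; scintillation counting.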
# [2] = system: eosinophils in human whole blood; experiment: PGD2-induced eosinophil cell shape assay in human whole blood; format: cell-based; conditions: 10 nM PGD2 final, flow cytometry
# Procedure: The Compounds of Formula (I) were diluted in dimethylsulphoxide so that the total volume of dimethylsulfoxide was kept constant at 2% dimethylsulphoxide (Me2SO). Serial dilutions of 200 μM to 0.09 μM were prepared. Samples of 90 μl of human blood from healthy volunteers (Centre de Transfusion Sanguine de Genève) were pre-incubated in polypropylene Falcon tubes (BD 352063) for 20 minutes in a water bath at 37° C. with 10 μl of diluted compounds. For CRTH2 activation, 100 μl PGD2 (Cayman 12010) at 20 nM was added (10 nM final) to each tube and cells were maintained at 37° C. For negative control cells were treated with PBS. After 10 minutes, cell activation was stopped with 120 μl Formaldehyde 10% (4% final, Fluka 41650) and cells were rested for 10 minutes at room temperature. Fixed cells were transferred into polypropylene tubes and then treated for 1 hour in a water bath at 37° C. with 2 ml of Triton-Surfact-Amps X-100 (Pierce 28314) at 0.166% (0.13% Triton final). After several washes with PBS (red cells lysed progressively during washes, two washes are necessary), cells were analyzed by flow cytometry on a FACSCalibur. In one embodiment, the compounds of Formula (I) of the present invention are capable of blocking the cell shape change of eosinophils induced by PGD2 in Whole Blood.
# CRTH2 [3] = target: T1, CRTH2; experiment: Cellular Dielectric Spectroscopy (CHO-CRTH2 cells); format: cell-based; set-up: expressed in transfected cells; host or cells: CHO-CRTH2 cells; conditions: antagonist mode, fixed concentration of PGD2 (EC80)
# Procedure: Cellular Dielectric Spectroscopy (CDS) is a label-free technology based on the measurement of complex impedance changes (delta Z or dZ). Impedance (Z) is related to the ratio of voltage to current as described by Ohm's law (Z=V/I). In order to measure the changes in impedance that occur in response to receptor stimulation, mammalian cells are seeded onto a custom 96-well microliter plate that contains electrodes at the bottom of each well. Key contributors to the impedance measurements are changes in cell-substrate adherence, changes in cell shape and volume, and changes in cell-cell interactions. These factors individually or collectively affect the flow of current, influencing the magnitude and characteristics of the signal measured. G-protein coupled receptors ligand-induced activity can be measured using this technology and specific G protein coupling can be identified. Activities of reference agonist and antagonist molecules of CRTH2 have been measured using this assay and similar results were obtained compared to different functional assays.
# CHO-CRTH2 cells are cultured in HAM's F12 (Lonza, Switzerland) supplemented with 10% foetal calf serum (PAA, Australia) and 400 μg/ml Geneticin. 100000 cells/well are seeded in standard 96W Microplates (MDS Analytical Technologies) and incubated at 37° C. in 5% CO2 for 24 hours. Cells are washed twice with 135 μl of cell key buffer (Hank's Balanced Salt Solution 1× (HBSS) (Invitrogen) supplemented with 10 mM HEPES pH 7.4 in presence of 1% DMSO). For EC50 determination. 15 μl of increasing concentration of Compounds of Formula (I) diluted in cell key buffer are added to the cells and agonist activity is then recorded for 25 minutes. […] Results are expressed as the amplitude between the highest and the lowest signal produced (max-min). Basal and maximum activities are measured, respectively in absence or presence of PGD2 (EC80).
Compound,pIC50 (CRTH2 [1]),pIC50 [2],pIC50 (CRTH2 [3])
"CCCc1ccc(S(C)(=O)=O)cc1C#Cc1cc(Cl)ccc1OCC(=O)O [Example 49, (4-chloro-2-{[5-(methylsulfonyl)-2-propylphenyl]ethynyl}phenoxy)acetic acid]",7.96,5.92,
"Cc1ccc(S(=O)(=O)N(C)C)cc1C#Cc1cc(Cl)ccc1OCC(=O)O [Example 83, [4-chloro-2-({5-[(dimethylamino)sulfonyl]-2-methylphenyl}ethynyl)phenoxy]acetic acid]",8.15,7.11,
"Cc1ccc(S(C)(=O)=O)cc1C#Cc1cc(Cl)ccc1OCC(=O)O [Example 33, (4-chloro-2-{[2-methyl-5-(methylsulfonyl)phenyl]ethynyl}phenoxy)acetic acid]",8.05,7.19,
"Cc1ccc(S(=O)(=O)CC(C)C)cc1C#Cc1cc(C#N)ccc1OCC(=O)O [Example 65, (4-cyano-2-{[5-(isobutylsulfonyl)-2-methylphenyl]ethynyl}phenoxy)acetic acid]",8.05,6.91,
"COCCN(C)S(=O)(=O)c1ccc(C)c(C#Cc2cc(Cl)ccc2OCC(=O)O)c1 [Example 109, {4-chloro-2-[(5-{[(2-methoxyethyl)(methyl)amino]sulfonyl}-2-methylphenyl)ethynyl]phenoxy}acetic acid]",8.30,7.11,

# More lines, now with the values ahead:
pIC50 (CRTH2 [1]),pIC50 [2],pIC50 (CRTH2 [3]),Compound
8.30,7.06,,"COCCNS(=O)(=O)c1ccc(C)c(C#Cc2cc(Cl)ccc2OCC(=O)O)c1 [Example 117, {4-chloro-2-[(5-{[(2-methoxyethyl)amino]sulfonyl}-2-methylphenyl)ethynyl]phenoxy}acetic acid]"
8.52,7.00,7.64,"CCc1ccc(S(C)(=O)=O)cc1C#Cc1cc(Cl)ccc1OCC(=O)O [Example 100, (4-chloro-2-{[2-ethyl-5-(methylsulfonyl)phenyl]ethynyl}phenoxy)acetic acid]"

# — patent publication US8273769B2, “Phenoxy acetic acid derivatives” (Merck Serono SA, priority 2009, dated 2012)
